Values after ≈ are worked out from the molar mass of the structure shown. One block for each compound: values may come before it.
What was measured:
Experiment in all cases: ≥ marks a high value that may be exact or a test limit, other limits are often not marked, values filed in µg/mL are converted to µM
[1] = system: Bacillus subtilis ATCC 6633
[2] = system: Escherichia coli ATCC 15597
[3] = system: Klebsiella pneumoniae NCTC 5055
[4] = system: Micrococcus luteus ATCC 49732
[5] = system: Pseudomonas aeruginosa ATCC 27853
[6] = system: Salmonella typhimurium DA6192
[7] = system: Staphylococcus aureus ATCC 6538
[8] = system: Bacillus subtilis KCTC 1021
Escherichia coli = system: Escherichia coli
[9] = system: Klebsiella pneumoniae ATCC 10031
[10] = system: Micrococcus luteus ATCC 4698
[11] = system: Pseudomonas aeruginosa ATCC 9027
[12] = system: Salmonella enterica subsp. enterica serovar Typhimurium ATCC 14028
Serratia marcescens = system: Serratia marcescens
[13] = system: Shigella dysenteriae ATCC 9752
[14] = system: Candida albicans CGMCC 2.2086
[15] = system: Candida parapsilosis CGMCC 2.3989
[16] = system: Candida tropicalis CGMCC 2.1975
[17] = system: Lacticaseibacillus rhamnosus 7469
[18] = system: Lactiplantibacillus plantarum 8014
[19] = system: Salmonella enterica subsp. enterica serovar Typhimurium C77-31
[20] = system: Staphylococcus aureus ATCC 25923
[21] = system: Staphylococcus aureus ATCC 29213
[22] = system: Staphylococcus epidermidis ATCC 12228
[23] = system: Candida albicans ATCC 10231
[24] = system: Cryptococcus neoformans ATCC 32045
[25] = system: Escherichia coli ATCC 2592
[26] = system: Pseudomonas aeruginosa ATCC 10145
[27] = system: Staphylococcus aureus ATCC 33591
Escherichia coli BW25113 = system: Escherichia coli BW25113

SMILES: CC[C@H](C)[C@H](NC(=O)CN)C(=O)N[C@@H](CC(C)C)C(=O)N[C@@H](CC(=O)O)C(=O)N[C@H](C(=O)N[C@@H](CC(C)C)C(=O)N[C@@H](CCCCN)C(=O)N[C@@H](CCC(N)=O)C(=O)N[C@@H](Cc1ccccc1)C(=O)N[C@@H](C)C(=O)N[C@@H](CCCCN)C(=O)NCC(=O)N[C@H](C(=O)NCC(=O)N[C@@H](Cc1c[nH]c2ccccc12)C(=O)N[C@@H](CC(=O)O)C(=O)N[C@@H](CC(C)C)C(=O)N[C@H](C(=O)N[C@@H](CCCCN)C(=O)NCC(=O)N[C@@H](C)C(=O)N[C@@H](C)C(=O)N[C@@H](CCC(N)=O)C(=O)O)C(C)C)C(C)C)[C@@H](C)O [GILDTLKQFAKGVGWDLVKGAAQ]
MIC [8]: ≥ 82.8 µM | MIC (Escherichia coli): > 82.8 µM | MIC [9]: ≥ 82.8 µM | MIC [10]: ≥ 82.8 µM | MIC [11]: > 82.8 µM | MIC [12]: > 82.8 µM | MIC (Serratia marcescens): ≥ 82.8 µM | MIC [13]: ≥ 82.8 µM

SMILES: CC[C@H](C)[C@H](NC(=O)CN)C(=O)N[C@@H](CC(C)C)C(=O)N[C@@H](CC(=O)O)C(=O)N[C@H](C(=O)N[C@@H](CC(C)C)C(=O)N[C@@H](CCCCN)C(=O)N[C@@H](CCC(N)=O)C(=O)N[C@@H](Cc1ccccc1)C(=O)N[C@@H](C)C(=O)N[C@@H](CCCCN)C(=O)NCC(=O)N[C@H](C(=O)NCC(=O)N[C@@H](CCCCN)C(=O)N[C@@H](Cc1ccccc1)C(=O)N[C@@H](CC(C)C)C(=O)N[C@H](C(=O)N[C@@H](CCCCN)C(=O)NCC(=O)N[C@@H](C)C(=O)N[C@@H](C)C(=O)N[C@@H](CCC(N)=O)C(=O)O)C(C)C)C(C)C)[C@@H](C)O [GILDTLKQFAKGVGKFLVKGAAQ]
MIC [8]: 10.5 µM (≈ 25 µg/mL) | MIC (Escherichia coli): 10.5 µM (≈ 25 µg/mL) | MIC [9]: ≥ 41.8 µM | MIC [10]: ≥ 83.7 µM | MIC [11]: 83.7 µM (≈ 200 µg/mL) | MIC [12]: > 83.7 µM | MIC (Serratia marcescens): ≥ 83.7 µM | MIC [13]: 20.9 µM (≈ 50 µg/mL)

SMILES: CC[C@H](C)[C@H](N)C(=O)N[C@H](C(=O)N[C@@H](CCCCN)C(=O)N[C@H](C(=O)N[C@H](C(=O)N[C@H](C(=O)N[C@@H](CCCCN)C(=O)N[C@@H](CC(C)C)C(=O)N[C@@H](CC(C)C)C(=O)N[C@@H](CC(N)=O)C(=O)N[C@@H](CCCN=C(N)N)C(=O)N[C@@H](CC(C)C)C(=O)N[C@@H](CO)C(=O)N[C@@H](CCCCN)C(=O)N[C@H](C(=O)N[C@@H](CC(C)C)C(=O)N[C@@H](CO)C(=O)N[C@@H](CCCCN)C(=O)O)[C@@H](C)CC)[C@@H](C)O)[C@@H](C)CC)C(C)C)[C@@H](C)O [ITKVITKLLNRLSKILSK]
MIC [1]: 4.2 µM (≈ 8.69 µg/mL) | MIC [2]: 2.8 µM (≈ 5.79 µg/mL) | MIC [3]: 25 µM (≈ 51.7 µg/mL) | MIC [4]: 1.05 µM (≈ 2.17 µg/mL) | MIC [5]: 2.08 µM (≈ 4.3 µg/mL) | MIC [6]: 16.7 µM (≈ 34.5 µg/mL) | MIC [7]: > 50 µM

SMILES: CC[C@H](C)[C@H](N)C(=O)N[C@@H](Cc1cnc[nH]1)C(=O)N[C@@H](Cc1cnc[nH]1)C(=O)N[C@H](C(=O)N[C@@H](Cc1cnc[nH]1)C(=O)N[C@@H](Cc1cnc[nH]1)C(=O)N[C@@H](Cc1cnc[nH]1)C(=O)N[C@H](C(=O)N[C@@H](Cc1cnc[nH]1)C(=O)N[C@@H](Cc1cnc[nH]1)C(=O)N[C@H](C(=O)N[C@@H](Cc1cnc[nH]1)C(=O)N[C@@H](Cc1cnc[nH]1)C(=O)N[C@@H](Cc1cnc[nH]1)C(=O)N[C@H](C(=O)N[C@@H](Cc1cnc[nH]1)C(=O)N[C@@H](Cc1cnc[nH]1)C(=O)N[C@H](C(=O)N[C@@H](Cc1cnc[nH]1)C(=O)N[C@@H](Cc1cnc[nH]1)C(=O)N[C@@H](Cc1cnc[nH]1)C(=O)N[C@H](C(=O)N[C@@H](Cc1cnc[nH]1)C(=O)N[C@@H](Cc1cnc[nH]1)C(=O)N[C@H](C(=O)N[C@@H](Cc1cnc[nH]1)C(=O)N[C@@H](Cc1cnc[nH]1)C(=O)N[C@@H](Cc1cnc[nH]1)C(N)=O)[C@@H](C)CC)[C@@H](C)CC)[C@@H](C)CC)[C@@H](C)CC)[C@@H](C)CC)[C@@H](C)CC)[C@@H](C)CC [IHHIHHHIHHIHHHIHHIHHHIHHIHHH]
MIC [14]: 2 µM (≈ 7.33 µg/mL) | MIC [15]: 2 µM (≈ 7.33 µg/mL) | MIC [16]: 1 µM (≈ 3.67 µg/mL) | MIC [17]: ≥ 64 µM | MIC [18]: 8 µM (≈ 29.3 µg/mL) | MIC [12]: 64 µM (≈ 235 µg/mL) | MIC [19]: ≥ 64 µM | MIC [20]: > 64 µM | MIC [21]: > 64 µM | MIC [22]: > 64 µM

SMILES: C[C@H](NC(=O)[C@H](Cc1ccccc1)NC(=O)[C@H](CCCCN)NC(=O)[C@H](Cc1ccccc1)NC(=O)[C@H](C)NC(=O)[C@H](Cc1ccccc1)NC(=O)[C@H](CCCCN)NC(=O)[C@H](Cc1ccccc1)NC(=O)[C@H](C)NC(=O)[C@H](Cc1ccccc1)NC(=O)[C@H](CCCCN)NC(=O)[C@H](Cc1ccccc1)NC(=O)[C@H](C)NC(=O)[C@H](Cc1ccccc1)NC(=O)[C@H](CCCCN)NC(=O)[C@H](Cc1ccccc1)NC(=O)[C@H](C)NC(=O)[C@H](Cc1ccccc1)NC(=O)[C@H](CCCCN)NC(=O)[C@H](Cc1ccccc1)NC(=O)[C@H](C)NC(=O)[C@H](Cc1ccccc1)NC(=O)[C@H](CCCCN)NC(=O)[C@H](Cc1ccccc1)NC(=O)[C@H](C)NC(=O)[C@H](Cc1ccccc1)NC(=O)[C@@H](N)CCCCN)C(=O)N[C@@H](Cc1ccccc1)C(=O)O [KFAFKFAFKFAFKFAFKFAFKFAFKFAF]
MIC [23]: > 144 µM | MIC [24]: ≥ 50.9 µM | MIC [25]: ≥ 288 µM | MIC [26]: ≥ 72 µM | MIC [27]: ≥ 144 µM

The next lines start with the values.

MIC [1]: ≥ 100 µM | MIC [2]: ≥ 100 µM | MIC [3]: ≥ 100 µM | MIC [4]: ≥ 100 µM | MIC [5]: > 100 µM | MIC [6]: ≥ 100 µM | MIC [7]: > 100 µM
SMILES: CC[C@H](C)[C@H](N)C(=O)N[C@H](C(=O)N[C@@H](CCC(=O)O)C(=O)N[C@H](C(=O)N[C@H](C(=O)N[C@H](C(=O)N[C@H](C(=O)N[C@@H](CC(C)C)C(=O)N[C@@H](CC(C)C)C(=O)N[C@@H](CC(N)=O)C(=O)N[C@@H](CCCN=C(N)N)C(=O)N[C@@H](CC(C)C)C(=O)N[C@H](C(=O)N[C@@H](CC(=O)O)C(=O)N[C@@H](CCCN=C(N)N)C(=O)N[C@@H](CC(C)C)C(=O)N[C@@H](CCC(=O)O)C(=O)N[C@@H](CCCCN)C(=O)O)[C@@H](C)O)[C@@H](C)CC)[C@@H](C)O)[C@@H](C)CC)C(C)C)[C@@H](C)O [ITEVITILLNRLTDRLEK]

MIC [1]: 4.7 µM (≈ 9.65 µg/mL) | MIC [2]: 3.1 µM (≈ 6.36 µg/mL) | MIC [3]: 12.5 µM (≈ 25.7 µg/mL) | MIC [4]: 1.05 µM (≈ 2.16 µg/mL) | MIC [5]: 3.1 µM (≈ 6.36 µg/mL) | MIC [6]: 16.7 µM (≈ 34.3 µg/mL) | MIC [7]: 5.2 µM (≈ 10.7 µg/mL)
SMILES: CC[C@H](C)[C@H](N)C(=O)N[C@H](C(=O)N[C@@H](CCCCN)C(=O)N[C@H](C(=O)N[C@H](C(=O)N[C@@H](C)C(=O)N[C@@H](CCCCN)C(=O)N[C@@H](CC(C)C)C(=O)N[C@@H](CC(C)C)C(=O)N[C@@H](CC(N)=O)C(=O)N[C@@H](CCCN=C(N)N)C(=O)N[C@@H](CC(C)C)C(=O)N[C@H](C(=O)N[C@@H](CCCCN)C(=O)N[C@H](C(=O)N[C@@H](CC(C)C)C(=O)N[C@@H](CO)C(=O)N[C@@H](CCCCN)C(=O)O)[C@@H](C)CC)[C@@H](C)O)[C@@H](C)CC)C(C)C)[C@@H](C)O [ITKVIAKLLNRLTKILSK]

MIC (Escherichia coli BW25113): 16 µM (≈ 38.2 µg/mL)
SMILES: CC[C@H](C)[C@H](NC(=O)[C@@H]1CCCN1C(=O)[C@H](CCCN=C(N)N)NC(=O)[C@H](CCCN=C(N)N)NC(=O)[C@H](CCCN=C(N)N)NC(=O)[C@@H](N)CCCN=C(N)N)C(=O)N[C@@H](CCCN=C(N)N)C(=O)N[C@@H](CCCN=C(N)N)C(=O)N[C@@H](CCCN=C(N)N)C(=O)N1CCC[C@H]1C(=O)N[C@H](C(=O)N[C@@H](CCCN=C(N)N)C(=O)N1CCC[C@H]1C(=O)N1CCC[C@H]1C(=O)N[C@@H](Cc1c[nH]c2ccccc12)C(=O)N[C@@H](Cc1ccc(O)cc1)C(=O)N[C@@H](CCCN=C(N)N)C(=O)O)[C@@H](C)CC [RRRRPIRRRPIRPPWYR]

From DBAASP
